From BindingDB's records for doi:10.1016/S0960-894X(01)80421-2 (1993)

Molecular target: Chorismate synthase (Escherichia coli) (UniProt P12008)
Assay: Compound was evaluated for the binding affinity towards Escherichia coli chorismate synthase

Chain of Chorismate synthase (Escherichia coli) (P12008 whole entry, looked up): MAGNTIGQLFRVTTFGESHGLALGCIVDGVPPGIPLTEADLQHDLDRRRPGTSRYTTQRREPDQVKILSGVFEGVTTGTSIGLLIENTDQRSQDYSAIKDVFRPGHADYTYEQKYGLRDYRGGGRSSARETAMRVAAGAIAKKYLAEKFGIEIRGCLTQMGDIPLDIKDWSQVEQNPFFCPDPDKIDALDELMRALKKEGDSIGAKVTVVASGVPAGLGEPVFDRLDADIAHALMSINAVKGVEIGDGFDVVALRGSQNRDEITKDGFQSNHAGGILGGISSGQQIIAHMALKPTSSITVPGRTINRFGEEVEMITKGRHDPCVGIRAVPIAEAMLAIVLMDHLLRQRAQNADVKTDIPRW

Kd: > 20 µM
Compound: Cc1cc2nc3c(=O)[nH]c(=O)nc-3n(C[C@H](O)[C@H](O)[C@H](O)COP(=O)(O)O)c2cc1C [E101a]
